The values that follow come from article PMC2994807 (Biochemistry, 2010).

The target of assay [1] is dialkylglycine decarboxylase (DGD); WT DGD (Burkholderia cepacia, UniProt P16932, M141R/W138F). In words: biochemical.
Assay [2] addresses dialkylglycine decarboxylase (DGD); WT DGD (Burkholderia cepacia, UniProt P16932, W138F). The experiment in a line: biochemical.

Molecules are shown by their SMILES.

The term Ki denotes the dissociation constant of the complex between target and ligand, obtained from inhibition or displacement. Higher therefore signals weaker binding. As to `N[C@H](CCC(=O)O)C(=O)O` [D-glutamate], the Ki in assay [1] is 89 mM.
Compound `N[C@@H](C(=O)O)c1ccccc1` [D-phenylglycine] came in with a Ki in assay [2] of 50 mM.
